Target: T1, OATP1B1 (Homo sapiens, UniProt Q9Y6L6)
T1 construct: host or cells: HEK293
T1 sequence (Q9Y6L6 1-691): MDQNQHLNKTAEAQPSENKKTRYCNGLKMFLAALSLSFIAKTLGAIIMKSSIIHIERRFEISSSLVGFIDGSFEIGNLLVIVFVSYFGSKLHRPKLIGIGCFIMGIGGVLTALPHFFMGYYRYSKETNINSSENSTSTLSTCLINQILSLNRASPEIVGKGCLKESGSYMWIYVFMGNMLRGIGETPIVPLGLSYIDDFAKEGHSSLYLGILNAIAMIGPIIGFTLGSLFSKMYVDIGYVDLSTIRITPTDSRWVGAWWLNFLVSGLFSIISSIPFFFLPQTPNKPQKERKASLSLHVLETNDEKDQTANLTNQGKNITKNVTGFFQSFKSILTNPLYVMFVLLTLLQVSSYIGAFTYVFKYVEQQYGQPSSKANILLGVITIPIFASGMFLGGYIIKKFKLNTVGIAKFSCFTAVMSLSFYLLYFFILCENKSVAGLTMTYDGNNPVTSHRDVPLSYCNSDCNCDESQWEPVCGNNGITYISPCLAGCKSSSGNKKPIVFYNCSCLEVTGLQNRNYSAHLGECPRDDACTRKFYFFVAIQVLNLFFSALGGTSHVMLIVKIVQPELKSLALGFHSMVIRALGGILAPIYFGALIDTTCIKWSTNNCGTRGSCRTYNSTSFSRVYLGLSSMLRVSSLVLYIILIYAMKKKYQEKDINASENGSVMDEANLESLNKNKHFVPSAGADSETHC
Assay: Inhibition of tracer uptake in OATP1B1-expressing cells
Type: in vitro ADME
Settings: OATP1B1, tracer [3H]E2G 0.1 µM
Experimental: For the SLC transporter experiments, Mock Flp-in-293 cells (Flp/mock), OAT1-expressing Flp-in-293 cells (Flp/OAT1), mock HEK293 cells (HEK/mock), and OATP1B3-expressing HEK293 cells (HEK/OATP1B3) were obtained from Kanazawa University (Ishikawa, Japan). Briefly, Flp-in-293 and HEK293 cells were transfected with the appropriate plasmid DNA and selected using antibiotics (hygromycin or G-418). All cell lines were cultured in DMEM (Life Technologies Japan) supplemented with 10% (v/v) fetal bovine serum (American Type Culture Collection) and antibiotics (100 U/mL penicillin and 100 μg/mL streptomycin (Life Technologies Japan) for mock cells, 0.2 mg/mL hygromycin for Flp/OAT1 cells, and 1.2 mg/mL G-418 (Roche Diagnostics K.K., Tokyo, Japan) for HEK/OATP1B3 cells) at 37 °C under an atmosphere containing 5% CO2. […]
The experiments were performed as described previously, with minor modifications. […] The cells were lysed in 0.3 mL of 0.1N NaOH at room temperature, after which the radioactivity of each aliquot was measured as described above. The protein concentration of the cell lysate was determined with a VersaMax microplate reader (Molecular Devices Japan K.K., Osaka, Japan) or SpectraMax i3x (Molecular Devices Japan K.K.; only for OATP1B1) using a BCA Protein Assay Kit (Thermo Fisher Scientific, Kanagawa, Japan). Tracer uptake was expressed as pmol/mg protein. […]

IC50: 5.41 ± 2.49 mM
SMILES: N[C@]1(C(=O)O)C[C@@H](F)C1 [fluciclovine]
